What was measured:
Experiment in all cases: relative viability (nuclei count vs DMSO), 5 days (fraction); higher = more cells survive
[1] = system: ABC-1
Procedure, shortened: (§1)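 Relative viability equals treated-well nuclei counts divided by vehicle-well nuclei counts. Counts came from 4× images of lung cancer cell lines grown in 1536-well plates for 5 days after pin-tool dosing on the day after seeding. Dosing used one drug alone or a fixed anchor-drug dose plus five library-drug doses (not always all listed) in √10 steps, and values are medians of duplicate plates.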

[2] = system: NCI-H2126
Procedure, shortened: as §1

[3] = system: NCI-H2087
Procedure, shortened: as §1

[4] = system: CAL-12T
Procedure, shortened: as §1

[5] = system: NCI-H596
Procedure, shortened: as §1

[6] = system: NCI-H2009
Procedure, shortened: as §1

[7] = system: NCI-H2023
Procedure, shortened: as §1

[8] = system: NCI-H661
Procedure, shortened: as §1

[9] = system: EKVX
Procedure, shortened: as §1

[10] = system: PC-14
Procedure, shortened: as §1

[11] = system: NCI-H1755
Procedure, shortened: as §1

[12] = system: RERF-LC-KJ
Procedure, shortened: as §1

[13] = system: NCI-H1651
Procedure, shortened: as §1

[14] = system: NCI-H1793
Procedure, shortened: as §1

[15] = system: LC-2-ad
Procedure, shortened: as §1

[16] = system: NCI-H1395
Procedure, shortened: as §1

[17] = system: COR-L 105
Procedure, shortened: as §1

[18] = system: NCI-H1648
Procedure, shortened: as §1

[19] = system: H3255
Procedure, shortened: as §1

[20] = system: UMC-11
Procedure, shortened: as §1

[21] = system: LCLC-103H
Procedure, shortened: as §1

[22] = system: SW 900
Procedure, shortened: as §1

[23] = system: EMC-BAC-2
Procedure, shortened: as §1

Oc1nc(-c2ccc(C(F)(F)F)cc2)nc2c1CSCC2 [XAV939] + O=C(CCCCCCC(=O)Nc1ccccc1)NO [Vorinostat] (partner 1 µM)
relative viability ([1]; first compound 0.253 µM): 0.767
relative viability ([1]; first compound 0.8 µM): 1.12
relative viability ([1]; first compound 2.53 µM): 0.568
relative viability ([2]; first compound 0.08 µM): 0.835
relative viability ([2]; first compound 0.253 µM): 0.587
relative viability ([2]; first compound 0.8 µM): 0.733
relative viability ([2]; first compound 2.53 µM): 0.564
relative viability ([3]; first compound 0.08 µM): 0.978
relative viability ([3]; first compound 0.253 µM): 0.561
relative viability ([3]; first compound 0.8 µM): 0.654
relative viability ([3]; first compound 2.53 µM): 0.594
relative viability ([4]; first compound 0.08 µM): 0.984
relative viability ([4]; first compound 0.253 µM): 0.483
relative viability ([4]; first compound 0.8 µM): 0.823
relative viability ([4]; first compound 2.53 µM): 0.381
relative viability ([5]; first compound 0.08 µM): 0.642
relative viability ([5]; first compound 0.253 µM): 0.623
relative viability ([5]; first compound 0.8 µM): 0.587
relative viability ([5]; first compound 2.53 µM): 0.543
relative viability ([6]; first compound 0.08 µM): 0.754
relative viability ([6]; first compound 0.253 µM): 0.709
relative viability ([6]; first compound 0.8 µM): 0.743
relative viability ([6]; first compound 2.53 µM): 0.536
relative viability ([7]; first compound 0.08 µM): 0.795
relative viability ([7]; first compound 0.253 µM): 0.552
relative viability ([7]; first compound 0.8 µM): 0.574
relative viability ([7]; first compound 2.53 µM): 0.461
relative viability ([8]; first compound 0.08 µM): 0.807
relative viability ([8]; first compound 0.253 µM): 0.674
relative viability ([8]; first compound 0.8 µM): 0.777
relative viability ([8]; first compound 2.53 µM): 0.777
relative viability ([9]; first compound 0.08 µM): 0.816
relative viability ([9]; first compound 0.8 µM): 0.678
relative viability ([9]; first compound 2.53 µM): 0.423
relative viability ([10]; first compound 0.08 µM): 0.96
relative viability ([10]; first compound 0.253 µM): 0.622
relative viability ([10]; first compound 0.8 µM): 0.789
relative viability ([10]; first compound 2.53 µM): 0.598
relative viability ([11]; first compound 0.08 µM): 0.783
relative viability ([11]; first compound 0.253 µM): 0.729
relative viability ([11]; first compound 0.8 µM): 0.74
relative viability ([11]; first compound 2.53 µM): 0.602
relative viability ([12]; first compound 0.08 µM): 0.707
relative viability ([12]; first compound 0.253 µM): 0.609
relative viability ([12]; first compound 0.8 µM): 0.643
relative viability ([12]; first compound 2.53 µM): 0.368
relative viability ([13]; first compound 0.08 µM): 0.546
relative viability ([13]; first compound 0.253 µM): 0.529
relative viability ([13]; first compound 0.8 µM): 0.555
relative viability ([13]; first compound 2.53 µM): 0.512
relative viability ([14]; first compound 0.08 µM): 0.952
relative viability ([14]; first compound 0.253 µM): 0.573
relative viability ([14]; first compound 0.8 µM): 0.937
relative viability ([14]; first compound 2.53 µM): 0.733
relative viability ([15]; first compound 0.08 µM): 0.735
relative viability ([15]; first compound 0.253 µM): 0.689
relative viability ([15]; first compound 0.8 µM): 0.705
relative viability ([15]; first compound 2.53 µM): 0.567
relative viability ([16]; first compound 0.08 µM): 0.746
relative viability ([16]; first compound 0.253 µM): 0.774
relative viability ([16]; first compound 0.8 µM): 0.725
relative viability ([16]; first compound 2.53 µM): 0.849
relative viability ([17]; first compound 0.08 µM): 0.85
relative viability ([17]; first compound 0.253 µM): 0.659
relative viability ([17]; first compound 0.8 µM): 0.719
relative viability ([17]; first compound 2.53 µM): 0.65
relative viability ([18]; first compound 0.253 µM): 0.522
relative viability ([18]; first compound 0.8 µM): 0.315
relative viability ([18]; first compound 2.53 µM): 0.285
relative viability ([19]; first compound 0.08 µM): 0.809
relative viability ([19]; first compound 0.253 µM): 0.692
relative viability ([19]; first compound 0.8 µM): 0.648
relative viability ([19]; first compound 2.53 µM): 0.712
relative viability ([20]; first compound 0.08 µM): 0.364
relative viability ([20]; first compound 0.253 µM): 0.267
relative viability ([20]; first compound 0.8 µM): 0.305
relative viability ([20]; first compound 2.53 µM): 0.274
relative viability ([21]; first compound 0.08 µM): 0.874
relative viability ([21]; first compound 0.253 µM): 0.698
relative viability ([21]; first compound 0.8 µM): 0.805
relative viability ([21]; first compound 2.53 µM): 0.618
relative viability ([22]; first compound 0.253 µM): 0.528
relative viability ([22]; first compound 0.8 µM): 0.494
relative viability ([22]; first compound 2.53 µM): 0.373
relative viability ([23]; first compound 0.08 µM): 0.175
relative viability ([23]; first compound 0.253 µM): 0.447
relative viability ([23]; first compound 0.8 µM): 0.379
relative viability ([23]; first compound 2.53 µM): 0.289

Oc1nc(-c2ccc(C(F)(F)F)cc2)nc2c1CSCC2 [XAV939] + O=C(c1cc(Cc2n[nH]c(=O)c3ccccc23)ccc1F)N1CCN(C(=O)C2CC2)CC1 [Olaparib] (partner 8 µM)
relative viability ([1]; first compound 0.253 µM): 0.792
relative viability ([1]; first compound 0.8 µM): 1.25
relative viability ([1]; first compound 2.53 µM): 0.61
relative viability ([2]; first compound 0.08 µM): 0.962
relative viability ([2]; first compound 0.253 µM): 0.839
relative viability ([2]; first compound 0.8 µM): 0.865
relative viability ([2]; first compound 2.53 µM): 0.855
relative viability ([3]; first compound 0.08 µM): 0.625
relative viability ([3]; first compound 0.253 µM): 0.533
relative viability ([3]; first compound 0.8 µM): 0.665
relative viability ([3]; first compound 2.53 µM): 0.464
relative viability ([4]; first compound 0.08 µM): 0.788
relative viability ([4]; first compound 0.253 µM): 0.699
relative viability ([4]; first compound 0.8 µM): 0.689
relative viability ([4]; first compound 2.53 µM): 0.654
relative viability ([5]; first compound 0.08 µM): 0.769
relative viability ([5]; first compound 0.253 µM): 0.644
relative viability ([5]; first compound 0.8 µM): 0.776
relative viability ([5]; first compound 2.53 µM): 0.556
relative viability ([6]; first compound 0.08 µM): 0.918
relative viability ([6]; first compound 0.253 µM): 0.728
relative viability ([6]; first compound 0.8 µM): 0.641
relative viability ([6]; first compound 2.53 µM): 0.754
relative viability ([7]; first compound 0.08 µM): 0.531
relative viability ([7]; first compound 0.253 µM): 0.38
relative viability ([7]; first compound 0.8 µM): 0.463
relative viability ([7]; first compound 2.53 µM): 0.402
relative viability ([8]; first compound 0.08 µM): 0.743
relative viability ([8]; first compound 0.253 µM): 0.655
relative viability ([8]; first compound 0.8 µM): 0.678
relative viability ([8]; first compound 2.53 µM): 0.708
relative viability ([9]; first compound 0.08 µM): 0.929
relative viability ([9]; first compound 0.253 µM): 0.514
relative viability ([9]; first compound 0.8 µM): 0.65
relative viability ([9]; first compound 2.53 µM): 0.378
relative viability ([10]; first compound 0.08 µM): 0.305
relative viability ([10]; first compound 0.253 µM): 0.208
relative viability ([10]; first compound 0.8 µM): 0.313
relative viability ([10]; first compound 2.53 µM): 0.248
relative viability ([11]; first compound 0.08 µM): 0.798
relative viability ([11]; first compound 0.253 µM): 0.767
relative viability ([11]; first compound 0.8 µM): 0.816
relative viability ([11]; first compound 2.53 µM): 0.733
relative viability ([12]; first compound 0.08 µM): 0.868
relative viability ([12]; first compound 0.253 µM): 0.763
relative viability ([12]; first compound 0.8 µM): 0.617
relative viability ([12]; first compound 2.53 µM): 0.292
relative viability ([13]; first compound 0.08 µM): 0.181
relative viability ([13]; first compound 0.253 µM): 0.19
relative viability ([13]; first compound 0.8 µM): 0.205
relative viability ([13]; first compound 2.53 µM): 0.196
relative viability ([14]; first compound 0.08 µM): 1.15
relative viability ([14]; first compound 0.253 µM): 0.707
relative viability ([14]; first compound 0.8 µM): 0.916
relative viability ([14]; first compound 2.53 µM): 0.646
relative viability ([15]; first compound 0.08 µM): 0.659
relative viability ([15]; first compound 0.253 µM): 0.652
relative viability ([15]; first compound 0.8 µM): 0.685
relative viability ([15]; first compound 2.53 µM): 0.553
relative viability ([16]; first compound 0.08 µM): 0.47
relative viability ([16]; first compound 0.253 µM): 0.449
relative viability ([16]; first compound 0.8 µM): 0.478
relative viability ([16]; first compound 2.53 µM): 0.425
relative viability ([17]; first compound 0.08 µM): 0.57
relative viability ([17]; first compound 0.253 µM): 0.486
relative viability ([17]; first compound 0.8 µM): 0.494
relative viability ([17]; first compound 2.53 µM): 0.561
relative viability ([18]; first compound 0.253 µM): 0.63
relative viability ([18]; first compound 0.8 µM): 1.12
relative viability ([18]; first compound 2.53 µM): 0.355
relative viability ([19]; first compound 0.08 µM): 0.598
relative viability ([19]; first compound 0.253 µM): 0.563
relative viability ([19]; first compound 0.8 µM): 0.553
relative viability ([19]; first compound 2.53 µM): 0.51
relative viability ([20]; first compound 0.08 µM): 0.488
relative viability ([20]; first compound 0.253 µM): 0.327
relative viability ([20]; first compound 0.8 µM): 0.327
relative viability ([20]; first compound 2.53 µM): 0.274
relative viability ([21]; first compound 0.08 µM): 0.833
relative viability ([21]; first compound 0.253 µM): 0.691
relative viability ([21]; first compound 0.8 µM): 0.725
relative viability ([21]; first compound 2.53 µM): 0.767
relative viability ([22]; first compound 0.253 µM): 0.844
relative viability ([22]; first compound 0.8 µM): 0.832
relative viability ([22]; first compound 2.53 µM): 0.421
relative viability ([23]; first compound 0.08 µM): 0.533
relative viability ([23]; first compound 0.253 µM): 0.477
relative viability ([23]; first compound 0.8 µM): 0.478
relative viability ([23]; first compound 2.53 µM): 0.301

Reference: the supplement of paper PMC10307832
